Assay results published in PubChem BioAssay AID248 (DTP/NCI, 2004).
“And” between values parts separate entries of the source, which are not always exact repeats. Equal entries are not always repeated. Toxic doses and inconclusive results are not listed. No stated cut-off is given here; in the data, active means T/C of 150% or more; inactive means T/C below 125%.

System: L1210 leukemia ip in BDF1 mice, survival T/C
Assay: NCI In Vivo Anticancer Drug Screen. Data for tumor model L1210 Leukemia (intraperitoneal) in B6D2F1 (BDF1) mice
Details: endpoint: mean survival time, higher = longer survival
Method in brief: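 Tumor cells were implanted, animals were treated, and survival was followed. The result divides the treated measurement by the vehicle-control measurement.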

[1] = dose: 100.0 mg/kg/injection, schedule: Q01DX009 (ip), vehicle: Klucel (hydroxypropylcellulose) (HPC)
[2] = dose: 200.0 mg/kg/injection, schedule: Q01DX009 (ip), vehicle: Klucel (hydroxypropylcellulose) (HPC)
[3] = dose: 100.0 mg/kg/injection, schedule: Q01DX001 (ip), vehicle: saline
[4] = dose: 200.0 mg/kg/injection, schedule: Q01DX001 (ip), vehicle: saline
[5] = dose: 400.0 mg/kg/injection, schedule: Q01DX001 (ip), vehicle: saline
[6] = dose: 100.0 mg/kg/injection, schedule: Q01DX001 (ip), vehicle: carboxymethylcellulose (CMC)
[7] = dose: 200.0 mg/kg/injection, schedule: Q01DX001 (ip), vehicle: carboxymethylcellulose (CMC)
[8] = dose: 400.0 mg/kg/injection, schedule: Q01DX001 (ip), vehicle: carboxymethylcellulose (CMC)
[9] = dose: 100.0 mg/kg/injection, schedule: Q01DX009 (ip), vehicle: saline with Tween-80
[10] = dose: 400.0 mg/kg/injection, schedule: Q01DX009 (ip), vehicle: saline with Tween-80
[11] = dose: 100.0 mg/kg/injection, schedule: Q04DX003 (ip), vehicle: saline with Tween-80
[12] = dose: 200.0 mg/kg/injection, schedule: Q04DX003 (ip), vehicle: saline with Tween-80
[13] = dose: 25.0 mg/kg/injection, schedule: Q04DX002 (ip), vehicle: Klucel (hydroxypropylcellulose) (HPC)
[14] = dose: 50.0 mg/kg/injection, schedule: Q04DX002 (ip), vehicle: Klucel (hydroxypropylcellulose) (HPC)
[15] = dose: 100.0 mg/kg/injection, schedule: Q04DX003 (ip), vehicle: Klucel (hydroxypropylcellulose) (HPC)
[16] = dose: 200.0 mg/kg/injection, schedule: Q04DX003 (ip), vehicle: Klucel (hydroxypropylcellulose) (HPC)
[17] = dose: 400.0 mg/kg/injection, schedule: Q04DX003 (ip), vehicle: Klucel (hydroxypropylcellulose) (HPC)

Measured: T/C

COC(=O)c1ccccc1C1=C(O)C(=O)C(c2ccccc2C(=O)OC)=C(O)C1=O
inactive: [1] 97 % of control | [2] 98 % of control

O=C(O)c1cccc(S(=O)(=O)O)c1
inactive: [3] 105 % of control | [4] 98 % of control | [5] 102 % of control

C=CCOc1ccc2c(cc1=O)C(NC(C)=O)CCc1cc(OC)c(OC)c(OC)c1-2 (centres undefined)
inactive: [6] 114 % of control | [7] 120 % of control | [8] 117 % of control

CCCc1cn(C(=O)NC2CCCCC2)c2ccccc12
inactive: [3] 94 % of control | dose: 100.0 mg/kg/injection, schedule: Q04DX003 (ip), vehicle: saline 106 % of control | [4] 94 % of control | dose: 200.0 mg/kg/injection, schedule: Q04DX003 (ip), vehicle: saline 112 % of control | [5] 87 % of control | dose: 400.0 mg/kg/injection, schedule: Q04DX003 (ip), vehicle: saline 93 % of control

O=C(N/N=C/c1ccc(Cl)cc1)C(O)(c1ccccc1)c1ccccc1
inactive: [9] 88 % of control | [10] 102 % of control

CNc1nnnn1-c1ccccc1
inactive: dose: 100.0 mg/kg/injection, schedule: Q01DX001 (ip), vehicle: acetone 95 % of control | dose: 200.0 mg/kg/injection, schedule: Q01DX001 (ip), vehicle: acetone 100 % of control | dose: 400.0 mg/kg/injection, schedule: Q01DX001 (ip), vehicle: acetone 95 % of control

O=S(=O)(Nc1cc(Cl)c(NS(=O)(=O)c2ccccc2)c2ccccc12)c1ccccc1
inactive: dose: 75.0 mg/kg/injection, schedule: Q01DX001 (ip), vehicle: Klucel (hydroxypropylcellulose) (HPC) 92 % of control | dose: 75.0 mg/kg/injection, schedule: Q01DX009 (ip), vehicle: Klucel (hydroxypropylcellulose) (HPC) 92 % of control | dose: 150.0 mg/kg/injection, schedule: Q01DX001 (ip), vehicle: Klucel (hydroxypropylcellulose) (HPC) 101 % of control | dose: 150.0 mg/kg/injection, schedule: Q01DX009 (ip), vehicle: Klucel (hydroxypropylcellulose) (HPC) 94 % of control | dose: 300.0 mg/kg/injection, schedule: Q01DX001 (ip), vehicle: Klucel (hydroxypropylcellulose) (HPC) 95 % of control

O=[N+]([O-])c1ccc2c(c1)c(-c1cccc(-c3ccccc3)c1)nc1ccccc12
inactive: [11] 95 % of control | [12] 88 % of control

O/N=C/c1ccc(Cc2ccccc2)o1
inactive: dose: 75.0 mg/kg/injection, schedule: Q01DX001 (ip), vehicle: carboxymethylcellulose (CMC) 97 % of control | dose: 150.0 mg/kg/injection, schedule: Q01DX001 (ip), vehicle: carboxymethylcellulose (CMC) 100 % of control | dose: 300.0 mg/kg/injection, schedule: Q01DX001 (ip), vehicle: carboxymethylcellulose (CMC) 96 % of control

Cc1cc(NC(=O)Nc2ccc(F)cc2)no1
inactive: [6] 100 % of control | dose: 100.0 mg/kg/injection, schedule: Q01DX009 (ip), vehicle: carboxymethylcellulose (CMC) 97 % of control and 105 % of control | dose: 100.0 mg/kg/injection, schedule: Q04DX002 (ip), vehicle: carboxymethylcellulose (CMC) 104 % of control | [7] 97 % of control | dose: 200.0 mg/kg/injection, schedule: Q01DX009 (ip), vehicle: carboxymethylcellulose (CMC) 97 % of control | dose: 200.0 mg/kg/injection, schedule: Q04DX002 (ip), vehicle: carboxymethylcellulose (CMC) 92 % of control and 102 % of control | [8] 101 % of control | dose: 400.0 mg/kg/injection, schedule: Q01DX009 (ip), vehicle: carboxymethylcellulose (CMC) 94 % of control and 95 % of control | dose: 400.0 mg/kg/injection, schedule: Q04DX002 (ip), vehicle: carboxymethylcellulose (CMC) 92 % of control and 94 % of control

CCOC(=O)C(C)F (centres undefined)
inactive: dose: 50.0 mg/kg/injection, schedule: Q01DX001 (ip), vehicle: carboxymethylcellulose (CMC) 94 % of control | [6] 89 % of control | [7] 89 % of control

CC(C)(C)C1CCC2(CC1)CO2 (centres undefined)
inactive: [3] 98 % of control

CCC(C)N(CCNc1cc(C)nc(/N=C(\N)Nc2ccc(Cl)c(Cl)c2)n1)C(C)CC (centres undefined)
inactive: [1] 106 % of control | [2] 97 % of control | dose: 400.0 mg/kg/injection, schedule: Q01DX009 (ip), vehicle: Klucel (hydroxypropylcellulose) (HPC) 86 % of control

CCOC(=O)C1CC(C)=C(C)CC1C(=O)O (centres undefined)
inactive: [9] 87 % of control | [11] 98 % of control | dose: 200.0 mg/kg/injection, schedule: Q01DX009 (ip), vehicle: saline with Tween-80 97 % of control | [12] 90 % of control | [10] 92 % of control | dose: 400.0 mg/kg/injection, schedule: Q04DX003 (ip), vehicle: saline with Tween-80 98 % of control

NC(CCl)=NCCCN1CCCCC1
inactive: dose: 12.5 mg/kg/injection, schedule: Q01DX009 (ip), vehicle: Klucel (hydroxypropylcellulose) (HPC) 104 % of control | dose: 12.5 mg/kg/injection, schedule: Q04DX002 (ip), vehicle: Klucel (hydroxypropylcellulose) (HPC) 107 % of control | dose: 25.0 mg/kg/injection, schedule: Q01DX009 (ip), vehicle: Klucel (hydroxypropylcellulose) (HPC) 96 % of control | [13] 96 % of control | [14] 105 % of control

NC(=S)N/N=C\c1ncnc2nc[nH]c12
active: dose: 8.0 mg/kg/injection, schedule: Q03HX024 (ip), vehicle: saline 150 % of control
inactive: dose: 0.5 mg/kg/injection, schedule: Q03HX024 (ip), vehicle: saline 111 % of control | dose: 1.0 mg/kg/injection, schedule: Q03HX024 (ip), vehicle: saline 121 % of control | dose: 5.0 mg/kg/injection, schedule: Q01DX001 (ip), vehicle: saline 114 % of control | dose: 10.0 mg/kg/injection, schedule: Q01DX001 (ip), vehicle: saline 118 % of control | dose: 20.0 mg/kg/injection, schedule: Q01DX001 (ip), vehicle: saline 114 % of control

CN(C)CCN1C(=O)c2ccccc2C(C(C)(C)[N+](=O)[O-])c2ccccc21 (centres undefined)
inactive: [15] 102 % of control | [16] 98 % of control | [17] 93 % of control

Cc1ccc(NN)c(I)c1
inactive: dose: 100.0 mg/kg/injection, schedule: Q01DX001 (ip), vehicle: saline with Tween-80 97 % of control | dose: 200.0 mg/kg/injection, schedule: Q01DX001 (ip), vehicle: saline with Tween-80 93 % of control | dose: 400.0 mg/kg/injection, schedule: Q01DX001 (ip), vehicle: saline with Tween-80 95 % of control

O=C(O)CCC(=O)c1cc2ccccc2s1
inactive: [15] 92 % of control | [16] 99 % of control | [17] 99 % of control

O=C1C(c2ccccc2)=C(c2ccccc2)C(c2ccccc2)C1c1ccccc1 (centres undefined)
inactive: dose: 100.0 mg/kg/injection, schedule: Q04DX002 (ip), vehicle: gum acacia 100 % of control | dose: 200.0 mg/kg/injection, schedule: Q04DX002 (ip), vehicle: gum acacia 87 % of control | dose: 400.0 mg/kg/injection, schedule: Q04DX002 (ip), vehicle: gum acacia 90 % of control

CC(C)(C)c1ccc(C(C)(C)C)c(O)c1
inactive: [13] 92 % of control and 90 % of control | [14] 95 % of control and 96 % of control | dose: 100.0 mg/kg/injection, schedule: Q04DX002 (ip), vehicle: Klucel (hydroxypropylcellulose) (HPC) 92 % of control and 104 % of control | dose: 200.0 mg/kg/injection, schedule: Q04DX002 (ip), vehicle: Klucel (hydroxypropylcellulose) (HPC) 92 % of control and 86 % of control

CCOC(=O)NC1=C(N2CC2(C)C)C(=O)C(NC(=O)OCC)=C(N2CC2(C)C)C1=O
inactive: dose: 0.93 mg/kg/injection, schedule: Q01DX009 (ip), vehicle: saline 94 % of control and 110 % of control | dose: 1.87 mg/kg/injection, schedule: Q01DX009 (ip), vehicle: saline 100 % of control and 91 % of control | dose: 3.75 mg/kg/injection, schedule: Q01DX009 (ip), vehicle: saline 96 % of control and 102 % of control | dose: 7.5 mg/kg/injection, schedule: Q01DX009 (ip), vehicle: saline 102 % of control and 107 % of control | dose: 15.0 mg/kg/injection, schedule: Q01DX009 (ip), vehicle: saline 96 % of control and 89 % of control | dose: 30.0 mg/kg/injection, schedule: Q01DX009 (ip), vehicle: saline 100 % of control and 102 % of control
